Molecules are shown by their SMILES.

Experiment [1] concerns the target T1, Glucocorticoid receptor (Rattus norvegicus, UniProt P06536).
T1 sequence (P06536 whole entry): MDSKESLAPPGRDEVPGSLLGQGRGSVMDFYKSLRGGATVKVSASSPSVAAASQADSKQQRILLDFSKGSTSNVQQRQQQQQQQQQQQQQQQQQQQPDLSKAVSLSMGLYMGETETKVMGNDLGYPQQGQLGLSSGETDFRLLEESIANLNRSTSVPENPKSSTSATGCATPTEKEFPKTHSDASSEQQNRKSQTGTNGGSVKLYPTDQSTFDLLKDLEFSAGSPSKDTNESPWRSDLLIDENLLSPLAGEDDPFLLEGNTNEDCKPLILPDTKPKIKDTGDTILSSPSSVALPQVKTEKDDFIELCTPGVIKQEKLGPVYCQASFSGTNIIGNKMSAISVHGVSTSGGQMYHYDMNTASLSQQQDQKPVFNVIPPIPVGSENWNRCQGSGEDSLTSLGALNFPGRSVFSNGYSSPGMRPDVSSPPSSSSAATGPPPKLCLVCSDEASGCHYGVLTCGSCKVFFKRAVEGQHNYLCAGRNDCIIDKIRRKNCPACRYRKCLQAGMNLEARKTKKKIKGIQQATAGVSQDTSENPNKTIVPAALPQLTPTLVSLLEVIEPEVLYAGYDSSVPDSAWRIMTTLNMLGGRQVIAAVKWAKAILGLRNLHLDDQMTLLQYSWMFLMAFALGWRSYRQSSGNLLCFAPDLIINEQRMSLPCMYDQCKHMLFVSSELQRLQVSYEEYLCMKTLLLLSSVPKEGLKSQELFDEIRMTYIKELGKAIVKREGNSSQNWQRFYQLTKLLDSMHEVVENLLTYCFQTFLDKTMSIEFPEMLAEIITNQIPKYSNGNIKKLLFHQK
In words: Inhibition against U2OS cells expressing rat Glucocorticoid receptor. It is filed as cell-based.

Experiment [2] has as its target T1, Glucocorticoid receptor. In words: Repression of AP1-luciferase reporter activity in TPA-stimulated U2OS cells expressing rat glucocorticoid receptor. In kind it is functional, cell-based. Background: A reporter such as luciferase makes a cellular process visible.
Experiment [3] deals with T1, Glucocorticoid receptor. Nature of the experiment: Repression of NF-kappaB-luciferase reporter activity in TPA stimulated U2OS cells expressing rat glucocorticoid receptor. In kind it is functional, cell-based.
In experiment [4] the target is T1, Glucocorticoid receptor. Nature of the experiment: Effective concentration against MMTV in transactivation assay in U2OS cells expressing rat GR. It is filed as functional, cell-based.
Experiment [5] deals with T2, Glucocorticoid receptor (Homo sapiens, UniProt P04150).
T2 sequence (P04150 whole entry): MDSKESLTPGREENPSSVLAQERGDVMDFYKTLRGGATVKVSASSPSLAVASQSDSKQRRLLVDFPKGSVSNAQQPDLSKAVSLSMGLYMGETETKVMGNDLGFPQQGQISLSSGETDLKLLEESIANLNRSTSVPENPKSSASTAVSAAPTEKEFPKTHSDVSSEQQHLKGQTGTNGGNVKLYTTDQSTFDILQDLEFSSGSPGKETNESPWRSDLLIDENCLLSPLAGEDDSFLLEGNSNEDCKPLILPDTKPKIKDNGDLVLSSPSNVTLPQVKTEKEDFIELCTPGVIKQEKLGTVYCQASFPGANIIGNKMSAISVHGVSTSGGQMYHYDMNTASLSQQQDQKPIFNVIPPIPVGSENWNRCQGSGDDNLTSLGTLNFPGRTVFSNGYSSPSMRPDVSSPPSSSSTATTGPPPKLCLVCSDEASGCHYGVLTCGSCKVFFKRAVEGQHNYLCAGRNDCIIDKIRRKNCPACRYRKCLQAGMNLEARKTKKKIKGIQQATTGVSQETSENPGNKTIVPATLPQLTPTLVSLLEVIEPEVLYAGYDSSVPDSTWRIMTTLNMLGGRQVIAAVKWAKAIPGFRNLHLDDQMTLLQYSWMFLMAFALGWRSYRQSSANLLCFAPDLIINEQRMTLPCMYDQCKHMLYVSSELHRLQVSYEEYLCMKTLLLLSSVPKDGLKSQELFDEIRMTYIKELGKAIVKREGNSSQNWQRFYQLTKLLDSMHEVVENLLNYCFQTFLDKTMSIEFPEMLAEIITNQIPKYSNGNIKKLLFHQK
Nature of the experiment: Binding affinity for recombinant human glucocorticoid receptor.

The target in experiment [6] is T2, Glucocorticoid receptor. In words: Effective concentration in CV-1 cell transactivation assay. In kind it is functional, cell-based.

For `C[C@]12Cc3cnn(-c4ccc(F)cc4)c3C=C1CCC[C@@H]2C(O)c1ccccc1` (stereo partly drawn), at Glucocorticoid receptor [1], the half-inhibitory concentration (IC50) (in general, the midpoint of a concentration-inhibition curve) was found to be 7.9 nM. For the same molecule, the EC50 (in general, the concentration that produces a half-maximal response) is 3 nM on Glucocorticoid receptor [2], 4 nM on Glucocorticoid receptor [3] and 3 nM at Glucocorticoid receptor [4].

Regarding `C[C@]12Cc3cnn(-c4ccc(F)cc4)c3C=C1CCC[C@@H]2C(O)c1ccc(Oc2ccccc2)cc1` (stereo partly drawn), the IC50 on Glucocorticoid receptor [1] is 15.5 nM.

Regarding `COc1cc(C(O)C2CCCC3=CC(=O)CCC32C)cc(OC)c1OC` (stereo not drawn), at Glucocorticoid receptor [5], the IC50 is greater than 2000 nM.

Regarding `CCCCCCCCC(O)[C@H]1CCCC2=Cc3c(cnn3-c3ccc(F)cc3)C[C@@]21C` (stereo partly drawn), on Glucocorticoid receptor [1], the IC50 stood at 4.9 nM. Also, the EC50 on Glucocorticoid receptor [2] turned out to be 6 nM; on Glucocorticoid receptor [3] it was 4 nM; at Glucocorticoid receptor [4], 4 nM.

Turning to `C[C@]12Cc3cnn(-c4ccc(F)cc4)c3C=C1CCC[C@@H]2C(O)c1cccc(O)c1` (stereo partly drawn), the midpoint of inhibition against Glucocorticoid receptor [1], the IC50, lay at 5.2 nM. Also, the EC50 on Glucocorticoid receptor [2], at Glucocorticoid receptor [3] and at Glucocorticoid receptor [4] was 3 nM in each case.

`CCCCC(O)[C@H]1CCCC2=Cc3c(cnn3-c3ccc(F)cc3)C[C@@]21C` (stereo partly drawn) came in with an IC50 against Glucocorticoid receptor [1] of 0.7 nM. In addition, the EC50 was 8 nM at Glucocorticoid receptor [2], 3 nM at Glucocorticoid receptor [3] and 5 nM at Glucocorticoid receptor [4].

The molecule `C[C@]12Cc3cnn(-c4ccc(F)cc4)c3C=C1CCC[C@@H]2C(O)CCc1ccccc1` (stereo partly drawn) showed an IC50 at Glucocorticoid receptor [1] of 8.6 nM. Moreover, the EC50 at Glucocorticoid receptor [2] came out at 7 nM; at Glucocorticoid receptor [3] it was 3 nM; at Glucocorticoid receptor [4] it was 11 nM.

Turning to `CC12CCC(=O)C=C1CCCC2C(O)c1ccccc1` (stereo not drawn), the IC50 at Glucocorticoid receptor [5] was 2100 nM.

Molecule `C[C@]12Cc3cnn(-c4ccc(F)cc4)c3C=C1CCC[C@@H]2C(O)c1ccc(O)cc1` (stereo partly drawn) returned an IC50 against Glucocorticoid receptor [1] of 6.6 nM. Also, the values for the EC50 on Glucocorticoid receptor [2], at Glucocorticoid receptor [3] and at Glucocorticoid receptor [4] were 16 nM, 12 nM and 20 nM, respectively.

On Glucocorticoid receptor [1], `Cc1ccc(C(O)[C@H]2CCCC3=Cc4c(cnn4-c4ccc(F)cc4)C[C@@]32C)cc1` (stereo partly drawn) yielded an IC50 of 2.5 nM. For the same molecule, the EC50 was 3 nM on Glucocorticoid receptor [2], 8 nM at Glucocorticoid receptor [3] and 4 nM on Glucocorticoid receptor [4].

On Glucocorticoid receptor [1], `C[C@]12Cc3cnn(-c4ccc(F)cc4)c3C=C1CCC[C@@H]2C(O)c1ccc(C(F)(F)F)cc1` (stereo partly drawn) displayed an IC50 of 14 nM. The half-maximal effective concentration (EC50) on Glucocorticoid receptor [2] turned out to be 31 nM; at Glucocorticoid receptor [3] it was 24 nM; on Glucocorticoid receptor [4] it was 31 nM.

Take `C[C@]12Cc3cnn(-c4ccc(F)cc4)c3C=C1CCC[C@@H]2C(O)Cc1ccccc1` (stereo partly drawn): the IC50 against Glucocorticoid receptor [1] was found to be 5.5 nM. The values for the EC50 at Glucocorticoid receptor [2], at Glucocorticoid receptor [3] and at Glucocorticoid receptor [4] were 17 nM, 11 nM and 9 nM, respectively.

Take `C[C@]12Cc3cnn(-c4ccc(F)cc4)c3C=C1CCC[C@@H]2C(O)c1ccc(Cl)cc1` (stereo partly drawn): the IC50 at Glucocorticoid receptor [1] stood at 7 nM. The figures for the EC50 at Glucocorticoid receptor [2], on Glucocorticoid receptor [3] and at Glucocorticoid receptor [4] were 3 nM, 4 nM and 9 nM, respectively.

Regarding `C[C@]12Cc3cnn(-c4ccc(F)cc4)c3C=C1CCC[C@@H]2C(O)c1csc2ccccc12` (stereo partly drawn), on Glucocorticoid receptor [1], the IC50 amounted to 1.8 nM. The EC50 is 1.8 nM on Glucocorticoid receptor [2], 22 nM at Glucocorticoid receptor [3] and 20 nM at Glucocorticoid receptor [4].

As to `COc1cccc(C(O)[C@H]2CCCC3=Cc4c(cnn4-c4ccc(F)cc4)C[C@@]32C)c1` (stereo partly drawn), at Glucocorticoid receptor [1], half-maximal inhibition (IC50) was put at 2.3 nM. Further, the EC50 turned out to be 19 nM at Glucocorticoid receptor [2], 3 nM on Glucocorticoid receptor [3] and 4 nM on Glucocorticoid receptor [4].

`CC12CCC(=O)C=C1CCCC2C(O)c1csc2ccccc12` (stereo not drawn): the half-maximal inhibitory concentration (IC50) on Glucocorticoid receptor [5] stood at 165 nM.

For `C[C@@H]1C[C@H]2C3CCC4=CC(=O)C=C[C@]4(C)[C@@]3(F)[C@@H](O)C[C@]2(C)[C@@]1(O)C(=O)O` (stereo partly drawn), the IC50 stood at 1.4 nM at Glucocorticoid receptor [1] and 5 nM at Glucocorticoid receptor [5]. The EC50 amounted to 0.2 nM on Glucocorticoid receptor [2], 0.3 nM at Glucocorticoid receptor [3], 5.6 nM at Glucocorticoid receptor [6] and 0.2 nM at Glucocorticoid receptor [4].

Values taken from ChEMBL document CHEMBL1137048, “Design and evaluation of novel nonsteroidal dissociating glucocorticoid receptor ligands” (Bioorg Med Chem Lett, 2004).
